The source made the active and inactive calls.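 The calls were made as follows: active = GFP ratio to DMSO above 1.5 or below 0.66; inactive = the rest.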
How the values were obtained:
Assay in all cases: TOR pathway GFP reporter clone modulation in yeast – S. cerevisiae, GFP-tagged clone panel, flow cytometry (AID 504473);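 also: median GFP fluorescence of the cells measured by high-throughput flow cytometry; test concentration not given here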
[1] = biological target: General amino acid permease AGP1 (Saccharomyces cerevisiae S288c) (UniProt P25376); conditions: S. cerevisiae GFP-tagged strains, 3 h, YCL025C
[2] = tested on: YAL060W; conditions: S. cerevisiae GFP-tagged strains, 3 h
[3] = tested on: YAL061W; conditions: S. cerevisiae GFP-tagged strains, 3 h
[4] = tested on: YBL087C; conditions: S. cerevisiae GFP-tagged strains, 3 h
[5] = tested on: YBR072W; conditions: S. cerevisiae GFP-tagged strains, 3 h
[6] = tested on: YBR139W; conditions: S. cerevisiae GFP-tagged strains, 3 h
[7] = tested on: YBR208C; conditions: S. cerevisiae GFP-tagged strains, 3 h
[8] = tested on: YBR248C; conditions: S. cerevisiae GFP-tagged strains, 3 h
[9] = tested on: YCL064C; conditions: S. cerevisiae GFP-tagged strains, 3 h
[10] = tested on: YCR002C; conditions: S. cerevisiae GFP-tagged strains, 3 h
[11] = tested on: YCR005C; conditions: S. cerevisiae GFP-tagged strains, 3 h
[12] = tested on: YDL130W; conditions: S. cerevisiae GFP-tagged strains, 3 h
[13] = tested on: YDL204W; conditions: S. cerevisiae GFP-tagged strains, 3 h
[14] = tested on: YDL205C; conditions: S. cerevisiae GFP-tagged strains, 3 h
[15] = tested on: YDR070C; conditions: S. cerevisiae GFP-tagged strains, 3 h
[16] = tested on: YDR382W; conditions: S. cerevisiae GFP-tagged strains, 3 h
[17] = tested on: YDR399W; conditions: S. cerevisiae GFP-tagged strains, 3 h
[18] = tested on: YDR453C; conditions: S. cerevisiae GFP-tagged strains, 3 h
[19] = tested on: YEL007W; conditions: S. cerevisiae GFP-tagged strains, 3 h
[20] = tested on: YEL060C; conditions: S. cerevisiae GFP-tagged strains, 3 h
[21] = tested on: YEL063C; conditions: S. cerevisiae GFP-tagged strains, 3 h
[22] = tested on: YEL071W; conditions: S. cerevisiae GFP-tagged strains, 3 h
[23] = tested on: YER081W; conditions: S. cerevisiae GFP-tagged strains, 3 h
[24] = tested on: YER117W; conditions: S. cerevisiae GFP-tagged strains, 3 h
[25] = tested on: YER151C; conditions: S. cerevisiae GFP-tagged strains, 3 h
[26] = tested on: YER156C; conditions: S. cerevisiae GFP-tagged strains, 3 h
[27] = tested on: YFR031C-A; conditions: S. cerevisiae GFP-tagged strains, 3 h
[28] = tested on: YFR053C; conditions: S. cerevisiae GFP-tagged strains, 3 h
[29] = tested on: YGL036W; conditions: S. cerevisiae GFP-tagged strains, 3 h
[30] = tested on: YGL062W; conditions: S. cerevisiae GFP-tagged strains, 3 h
[31] = tested on: YGL135W; conditions: S. cerevisiae GFP-tagged strains, 3 h
[32] = tested on: YGL147C; conditions: S. cerevisiae GFP-tagged strains, 3 h
[33] = tested on: YGR019W; conditions: S. cerevisiae GFP-tagged strains, 3 h
[34] = tested on: YGR034W; conditions: S. cerevisiae GFP-tagged strains, 3 h
[35] = tested on: YGR088W; conditions: S. cerevisiae GFP-tagged strains, 3 h
[36] = tested on: YGR121C; conditions: S. cerevisiae GFP-tagged strains, 3 h
[37] = tested on: YHL021C; conditions: S. cerevisiae GFP-tagged strains, 3 h
[38] = tested on: YHR018C; conditions: S. cerevisiae GFP-tagged strains, 3 h
[39] = tested on: YHR087W; conditions: S. cerevisiae GFP-tagged strains, 3 h
[40] = tested on: YHR141C; conditions: S. cerevisiae GFP-tagged strains, 3 h
[41] = tested on: YHR144C; conditions: S. cerevisiae GFP-tagged strains, 3 h
[42] = tested on: YHR203C; conditions: S. cerevisiae GFP-tagged strains, 3 h
[43] = tested on: YIL043C; conditions: S. cerevisiae GFP-tagged strains, 3 h
[44] = tested on: YIL051C; conditions: S. cerevisiae GFP-tagged strains, 3 h
[45] = tested on: YIL052C; conditions: S. cerevisiae GFP-tagged strains, 3 h
[46] = tested on: YIL066C; conditions: S. cerevisiae GFP-tagged strains, 3 h
[47] = tested on: YIL069C; conditions: S. cerevisiae GFP-tagged strains, 3 h
[48] = tested on: YJL056C; conditions: S. cerevisiae GFP-tagged strains, 3 h

Chain of General amino acid permease AGP1 (Saccharomyces cerevisiae S288c) (P25376 whole entry, looked up): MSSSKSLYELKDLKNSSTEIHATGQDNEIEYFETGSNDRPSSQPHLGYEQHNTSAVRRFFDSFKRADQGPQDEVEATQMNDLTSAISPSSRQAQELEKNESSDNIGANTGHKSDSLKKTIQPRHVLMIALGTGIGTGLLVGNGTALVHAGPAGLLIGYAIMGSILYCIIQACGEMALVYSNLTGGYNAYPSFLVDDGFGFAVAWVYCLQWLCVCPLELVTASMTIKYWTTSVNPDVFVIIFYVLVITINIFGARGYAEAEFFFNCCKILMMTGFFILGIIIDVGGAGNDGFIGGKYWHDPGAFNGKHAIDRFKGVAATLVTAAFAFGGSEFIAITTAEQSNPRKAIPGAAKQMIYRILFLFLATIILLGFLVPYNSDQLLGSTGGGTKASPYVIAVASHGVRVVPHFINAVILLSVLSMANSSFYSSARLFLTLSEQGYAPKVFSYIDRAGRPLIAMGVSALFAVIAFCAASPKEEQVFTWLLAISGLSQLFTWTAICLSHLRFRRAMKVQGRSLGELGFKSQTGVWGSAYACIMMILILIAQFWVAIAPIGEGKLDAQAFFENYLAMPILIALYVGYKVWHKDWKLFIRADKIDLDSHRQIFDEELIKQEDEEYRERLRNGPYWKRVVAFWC

SMILES: CO[C@H]1C[C@@H]2CC[C@@H](C)[C@@](O)(O2)C(=O)C(=O)N2CCCC[C@H]2C(=O)O[C@H]([C@H](C)C[C@@H]2CC[C@@H](O)[C@H](OC)C2)CC(=O)[C@H](C)/C=C(\C)[C@@H](O)[C@@H](OC)C(=O)[C@H](C)C[C@H](C)/C=C/C=C/C=C/1C
- GFP ratio to DMSO [1]: 2.27
- GFP ratio to DMSO [2]: 3.23
- GFP ratio to DMSO [3]: 2.14
- GFP ratio to DMSO [4]: 0.33
- GFP ratio to DMSO [5]: 4.94
- GFP ratio to DMSO [6]: 1.61
- GFP ratio to DMSO [7]: 3.04
- GFP ratio to DMSO [8]: 1.11 (inactive)
- GFP ratio to DMSO [9]: 1.28 (inactive)
- GFP ratio to DMSO [10]: 0.98 (inactive)
- GFP ratio to DMSO [11]: 4.59
- GFP ratio to DMSO [12]: 0.717 (inactive)
- GFP ratio to DMSO [13]: 1.4 (inactive)
- GFP ratio to DMSO [14]: 0.898 (inactive)
- GFP ratio to DMSO [15]: 4.12
- GFP ratio to DMSO [16]: 0.783 (inactive)
- GFP ratio to DMSO [17]: 0.946 (inactive)
- GFP ratio to DMSO [18]: 2.58
- GFP ratio to DMSO [19]: 1.05 (inactive)
- GFP ratio to DMSO [20]: 2.55
- GFP ratio to DMSO [21]: 1.7
- GFP ratio to DMSO [22]: 2.11
- GFP ratio to DMSO [23]: 1.08 (inactive)
- GFP ratio to DMSO [24]: 0.304
- GFP ratio to DMSO [25]: 1.03 (inactive)
- GFP ratio to DMSO [26]: 1.05 (inactive)
- GFP ratio to DMSO [27]: 0.481
- GFP ratio to DMSO [28]: 1.66
- GFP ratio to DMSO [29]: 0.919 (inactive)
- GFP ratio to DMSO [30]: 2.27
- GFP ratio to DMSO [31]: 0.682 (inactive)
- GFP ratio to DMSO [32]: 0.682 (inactive)
- GFP ratio to DMSO [33]: 1.93
- GFP ratio to DMSO [34]: 0.689 (inactive)
- GFP ratio to DMSO [35]: 2.06
- GFP ratio to DMSO [36]: 1.72
- GFP ratio to DMSO [37]: 2.52
- GFP ratio to DMSO [38]: 1.54
- GFP ratio to DMSO [39]: 2.24
- GFP ratio to DMSO [40]: 0.777 (inactive)
- GFP ratio to DMSO [41]: 0.869 (inactive)
- GFP ratio to DMSO [42]: 0.685 (inactive)
- GFP ratio to DMSO [43]: 0.996 (inactive)
- GFP ratio to DMSO [44]: 1.4 (inactive)
- GFP ratio to DMSO [45]: 0.619
- GFP ratio to DMSO [46]: 1.17 (inactive)
- GFP ratio to DMSO [47]: 0.171
- GFP ratio to DMSO [48]: 0.954 (inactive)
